# Measurements from patent US11279687B2, “Compounds and compositions for the inhibition of NAMPT” (Valo Health, Inc., priority 2010, dated 2022).
# Read-outs that look alike come from different tables or passages of the source.
# What was measured:
# A2780 cells = test: In-vitro cell proliferation assay (SRB), A2780 cells; type: cell-based; conditions: read-out: A2780 IC50;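 further: viable cell number read as SRB absorbance, background from media-only wells subtracted, IC50 interpolated from percent inhibition at two bracketing compound concentrations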
# NAMPT = NAMPT (Homo sapiens (Human), UniProt P43490); test: NAMPT biochemical inhibition assay (NMN quantified by mass spectrometry); conditions: NAMPT biochemical inhibition; read-out: Biochem IC50
# Chain of NAMPT (P43490 whole entry): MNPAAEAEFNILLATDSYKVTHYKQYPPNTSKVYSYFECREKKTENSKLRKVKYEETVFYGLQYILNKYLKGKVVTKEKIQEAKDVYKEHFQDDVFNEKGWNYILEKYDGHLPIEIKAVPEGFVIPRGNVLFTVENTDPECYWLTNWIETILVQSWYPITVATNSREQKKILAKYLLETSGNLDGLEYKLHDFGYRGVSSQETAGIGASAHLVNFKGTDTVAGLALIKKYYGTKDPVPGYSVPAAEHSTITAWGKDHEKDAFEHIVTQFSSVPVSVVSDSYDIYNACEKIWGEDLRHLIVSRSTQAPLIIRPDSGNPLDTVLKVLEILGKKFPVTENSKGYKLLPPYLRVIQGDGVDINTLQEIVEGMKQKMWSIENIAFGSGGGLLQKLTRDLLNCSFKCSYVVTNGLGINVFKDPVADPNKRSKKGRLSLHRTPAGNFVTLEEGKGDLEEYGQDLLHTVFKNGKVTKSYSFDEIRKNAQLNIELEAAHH
# [1] = Homo sapiens, A2780, 72 h, A2780 cells, 72 hours, SRB
Compound,IC50 (A2780 cells; [1]) [nM],IC50 (NAMPT) [nM],"IC50 (A2780 cells; A2780 cells, 72 hours, SRB) [nM]","IC50 (A2780 cells; Homo sapiens, A2780, 72 h) [nM]"
"O=C(NCc1cccnc1)Nc1ccc(S(=O)(=O)c2ccc3c(c2)OCO3)cc1 [1-[4-(2H-1,3-benzodioxole-5-sulfonyl)phenyl]-3-(pyridin-3-ylmethyl)urea]",322,1,–,–
"O=C(NCc1cccnc1)Nc1ccc(S(=O)(=O)N2CCOc3ccccc32)cc1 [1-[4-(3,4-dihydro-2H-1,4-benzoxazine-4-sulfonyl)phenyl]-3-(pyridin-3-ylmethyl)urea]",459,10,–,–
"CC1CC(C)CN(S(=O)(=O)c2ccc(NC(=O)NCc3cccnc3)cc2)C1 (stereo not shown) [1-[4-(3,5-dimethylpiperidine-1-sulfonyl)phenyl]-3-(pyridin-3-ylmethyl)urea]",14,6,–,–
"O=C(NCc1cccnc1)Nc1ccc(S(=O)(=O)N2CCC(F)(F)CC2)cc1 [1-[4-(4,4-difluoropiperidine-1-sulfonyl)phenyl]-3-(pyridin-3-ylmethyl)urea]",299,25,–,–
"O=C(NCc1cccnc1)Nc1ccc(S(=O)(=O)N2CCCN(Cc3ccccc3)CC2)cc1 [1-[4-(4-benzyl-1,4-diazepane-1-sulfonyl)phenyl]-3-(pyridin-3-ylmethyl)urea]",137,5,–,–
O=C(NCc1cccnc1)Nc1ccc(S(=O)(=O)N2CCN(C(=O)[C@H]3CCCO3)CC2)cc1 [1-[4-(4-{[(2R)-oxolan-2-yl]carbonyl[piperazine-1-sulfonyl)phenyl]-3-(pyridin-3-ylmethyl)urea],–,8,30,–
"O=C(NCc1cc2ccncc2s1)Nc1ccc(S(=O)(=O)c2ccccc2)cc1 [1-[4-(benzenesulfonyl)phenyl]-3-{thieno[2,3-c]pyridin-2-ylmethyl}urea]",> 30000,460,–,–
O=C(NCc1cccnc1)Nc1ccc(S(=O)(=O)NC2CCCCCC2)cc1 [1-[4-(cycloheptylsulfamoyl)phenyl]-3-(pyridin-3-ylmethyl)urea],80,3,–,–
O=C(NCc1cccnc1)Nc1ccc(S(=O)(=O)NC2CCCCC2)cc1 [1-[4-(cyclohexylsulfamoyl)phenyl]-3-(pyridin-3-ylmethyl)urea],204,1,–,–
O=C(NCc1cccnc1)Nc1ccc(S(=O)(=O)C2CCCC2)cc1 [1-[4-(cyclopentanesulfonyl)phenyl]-3-(pyridin-3-ylmethyl)urea],1860,43,–,–
O=C(NCc1cccnc1)Nc1ccc(S(=O)(=O)N2CCCC3CCCCC32)cc1 (stereo not shown) [1-[4-(decahydroquinoline-1-sulfonyl)phenyl]-3-(pyridin-3-ylmethyl)urea],14,11,–,–
O=C(NCc1cccnc1)Nc1ccc(S(=O)(=O)N(Cc2ccccc2)Cc2ccccc2)cc1 [1-[4-(dibenzylsulfamoyl)phenyl]-3-(pyridin-3-ylmethyl)urea],0.3,0.8,–,–
O=C(NCc1cccnc1)Nc1ccc(S(=O)(=O)c2cncc3ccccc23)cc1 [1-[4-(isoquinoline-4-sulfonyl)phenyl]-3-(pyridin-3-ylmethyl)urea],8.3,1.4,–,–
O=C(NCc1cccnc1)Nc1ccc(S(=O)(=O)c2cccc3c2Oc2ccccc2S3)cc1 [1-[4-(phenoxathiine-4-sulfonyl)phenyl]-3-(pyridin-3-ylmethyl)urea],1.8,2.9,–,–
O=C(NCc1cccnc1)Nc1ccc(S(=O)(=O)N2CCNCC2)cc1 [1-[4-(piperazine-1-sulfonyl)phenyl]-3-(pyridin-3-ylmethyl)urea],> 2000,48.6,–,–
O=C(NCc1cccnc1)Nc1ccc(S(=O)(=O)c2cccc(C(=O)N3CCOCC3)c2)cc1 [1-[4-({3-[(morpholin-4-yl)carbonyl]benzene}sulfonyl)phenyl]-3-(pyridin-3-ylmethyl)urea],100 to 1000,5,–,–
O=C(NCc1cccnc1)Nc1ccc(S(=O)(=O)c2ccccc2)nc1 [1-[6-(benzenesulfonyl)pyridin-3-yl]-3-(pyridin-3-ylmethyl)urea],2360,15,–,–
"O=C(NCc1ccc(F)c(F)c1)Nc1ccc(S(=O)(=O)N2CCCCC2)cc1 [1-[(3,4-difluorophenyl)methyl]-3-[4-(piperidine-1-sulfonyl)phenyl]urea]",29000,92,–,–
Nc1ccc(CNC(=O)Nc2ccc(S(=O)(=O)c3ccc(F)cc3)cc2)cn1 [1-[(6-aminopyridin-3-yl)methyl]-3-{4-[(4-fluorobenzene)sulfonyl]phenyl}urea],43,2,–,–
O=C(NCc1cccnc1)Nc1ccc(S(=O)(=O)c2cccnc2N2CCOCC2)cc1 [1-{4-[2-(morpholin-4-yl)pyridine-3-sulfonyl]phenyl}-3-(pyridin-3-ylmethyl)urea],100 to 1000,16,–,–
"O=C(NCc1cccnc1)Nc1ccc(S(=O)(=O)N2CCC(N3C(=O)Cc4ccccc43)CC2)cc1 [1-{4-[4-(2-oxo-2,3-dihydro-1H-indol-1-yl)piperidine-1-sulfonyl]phenyl}-3-(pyridin-3-ylmethyl)urea]",–,3,–,58

Compound,IC50 (A2780 cells; [1]) [nM],IC50 (NAMPT) [nM],"IC50 (A2780 cells; A2780 cells, 72 hours, SRB) [nM]","IC50 (A2780 cells; Homo sapiens, A2780, 72 h) [nM]"
O=C(NCc1cccnc1)Nc1ccc(S(=O)(=O)N2CCN(C(=O)Cc3ccccc3)CC2)cc1 [1-{4-[4-(2-phenylacetyl)piperazine-1-sulfonyl]phenyl}-3-(pyridin-3-ylmethyl)urea],932,3,–,–
O=C(NCc1cccnc1)Nc1ccc(S(=O)(=O)N2CCC(N3CCCCCC3)CC2)cc1 [1-{4-[4-(azepan-1-yl)piperidine-1-sulfonyl]phenyl}-3-(pyridin-3-ylmethyl)urea],6,5,–,–
O=C(NCc1cccnc1)Nc1ccc(S(=O)(=O)N2CCC(N3CCCCC3)CC2)cc1 [1-{4-[4-(piperidin-1-yl)piperidine-1-sulfonyl]phenyl}-3-(pyridin-3-ylmethyl)urea],13,7,–,–
O=C(NCc1cccnc1)Nc1ccc(S(=O)(=O)c2ccc(N3CCOCC3)nc2)cc1 [1-{4-[6-(morpholin-4-yl)pyridine-3-sulfonyl]phenyl}-3-(pyridin-3-ylmethyl)urea],30.4,3.6,–,–
O=C(NCc1cccnc1)Nc1ccc(S(=O)(=O)NC2(c3ccccc3)CCCC2)cc1 [1-{4-[(1-phenylcyclopentyl)sulfamoyl]phenyl}-3-(pyridin-3-ylmethyl)urea],180,29,–,–
"O=C(NCc1cccnc1)Nc1ccc(S(=O)(=O)N2CC[C@@]3(C2)OC(=O)c2ccccc23)cc1 [1-{4-[(1R)-3-oxo-3H-spiro[2-benzofuran-1,3′-pyrrolidine]-1′-ylsulfonyl]phenyl}-3-(pyridin-3-ylmethyl)urea]",41,5,–,–
O=C(NCc1cccnc1)Nc1ccc(S(=O)(=O)c2ccccc2Oc2ccccc2)cc1 [1-{4-[(2-phenoxybenzene)sulfonyl]phenyl}-3-(pyridin-3-ylmethyl)urea],8,2,–,–
O=C(NCc1cccnc1)Nc1ccc(S(=O)(=O)Nc2ccccc2-c2ccccc2)cc1 [1-{4-[(2-phenylphenyl)sulfamoyl]phenyl}-3-(pyridin-3-ylmethyl)urea],47,3,–,–
O=C(NCc1cccnc1)Nc1ccc(S(=O)(=O)N2CCCC[C@@H]2CN2CCOCC2)cc1 [1-{4-[(2R)-2-(morpholin-4-ylmethyl)piperidine-1-sulfonyl]phenyl}-3-(pyridin-3-ylmethyl)urea],81,51,–,–
O=C(NCc1cccnc1)Nc1ccc(S(=O)(=O)N2CCCC[C@@H]2Cc2ccccc2)cc1 [1-{4-[(2R)-2-benzylpiperidine-1-sulfonyl]phenyl}-3-(pyridin-3-ylmethyl)urea],24,4,–,–
O=C(NCc1cccnc1)Nc1ccc(S(=O)(=O)Nc2cccc(C(=O)c3ccccc3)c2)cc1 [1-{4-[(3-benzoylphenyl)sulfamoyl]phenyl}-3-(pyridin-3-ylmethyl)urea],1000 to 10000,4.4,–,–
N#Cc1cccc(S(=O)(=O)c2ccc(NC(=O)NCc3cccnc3)cc2)c1 [1-{4-[(3-cyanobenzene)sulfonyl]phenyl}-3-(pyridin-3-ylmethyl)urea],100 to 1000,8,–,–
O=C(NCc1cccnc1)Nc1ccc(S(=O)(=O)c2cccc(-c3ccccc3)c2)cc1 [1-{4-[(3-phenylbenzene)sulfonyl]phenyl}-3-(pyridin-3-ylmethyl)urea],100 to 1000,6.8,–,–
N#Cc1ccc(S(=O)(=O)c2ccc(NC(=O)NCc3cccnc3)cc2)cc1 [1-{4-[(4-cyanobenzene)sulfonyl]phenyl}-3-(pyridin-3-ylmethyl)urea],100 to 1000,7.6,–,–
O=C(NCc1cccnc1)Nc1ccc(S(=O)(=O)c2ccc(-c3ccccc3)cc2)cc1 [1-{4-[(4-phenylbenzene)sulfonyl]phenyl}-3-(pyridin-3-ylmethyl)urea],100 to 1000,5.8,–,–
O=C(NCc1cccnc1)Nc1ccc(S(=O)(=O)NCC2CCCCC2)cc1 [1-{4-[(cyclohexylmethyl)sulfamoyl]phenyl}-3-(pyridin-3-ylmethyl)urea],181,4,–,–
O=C(NCc1cccnc1)Nc1ccc(S(=O)(=O)NCc2ccccn2)cc1 [1-{4-[(pyridin-2-ylmethyl)sulfamoyl]phenyl}-3-(pyridin-3-ylmethyl)urea],1000 to 10000,8.4,–,–
O=C(NCc1ccc(S(=O)(=O)c2ccccc2)cc1)Nc1ccc2ncccc2c1 [1-{[4-(benzenesulfonyl)phenyl]methyl}-3-(quinolin-6-yl)urea],> 30000,2260,–,–
CC(C)NC(=O)c1cc(S(=O)(=O)c2ccc(NC(=O)NCc3cccnc3)cc2)ccc1F [2-fluoro-N-(propan-2-yl)-5-[(4-{[(pyridin-3-ylmethyl)carbamoyl]amino}benzene)sulfonyl]benzamide],100 to 1000,20.9,–,–
CC(C)C(=O)NC1CCN(S(=O)(=O)c2ccc(NC(=O)NCc3cccnc3)cc2)CC1 [2-methyl-N-{1-[(4-{[(pyridin-3-ylmethyl)carbamoyl]amino}benzene)sulfonyl]piperidin-4-yl}propanamide],–,5,123,–
